For 26 molecules, IC50 results are on record in patent publication US20060135480A1, “Derivatives of succinic and glutaric acids and analogs thereof useful as inhibitors of phex” (Enobia Pharma, priority 2002, published 2006).

For the experiment, the target named is T1, sPHEX (Homo sapiens, UniProt P78562).
T1 construct: The soluble form of the metallopeptidase PHEX (sPHEX) was purified to homogeneity; made in house
T1 sequence (P78562 53-749 limits assumed): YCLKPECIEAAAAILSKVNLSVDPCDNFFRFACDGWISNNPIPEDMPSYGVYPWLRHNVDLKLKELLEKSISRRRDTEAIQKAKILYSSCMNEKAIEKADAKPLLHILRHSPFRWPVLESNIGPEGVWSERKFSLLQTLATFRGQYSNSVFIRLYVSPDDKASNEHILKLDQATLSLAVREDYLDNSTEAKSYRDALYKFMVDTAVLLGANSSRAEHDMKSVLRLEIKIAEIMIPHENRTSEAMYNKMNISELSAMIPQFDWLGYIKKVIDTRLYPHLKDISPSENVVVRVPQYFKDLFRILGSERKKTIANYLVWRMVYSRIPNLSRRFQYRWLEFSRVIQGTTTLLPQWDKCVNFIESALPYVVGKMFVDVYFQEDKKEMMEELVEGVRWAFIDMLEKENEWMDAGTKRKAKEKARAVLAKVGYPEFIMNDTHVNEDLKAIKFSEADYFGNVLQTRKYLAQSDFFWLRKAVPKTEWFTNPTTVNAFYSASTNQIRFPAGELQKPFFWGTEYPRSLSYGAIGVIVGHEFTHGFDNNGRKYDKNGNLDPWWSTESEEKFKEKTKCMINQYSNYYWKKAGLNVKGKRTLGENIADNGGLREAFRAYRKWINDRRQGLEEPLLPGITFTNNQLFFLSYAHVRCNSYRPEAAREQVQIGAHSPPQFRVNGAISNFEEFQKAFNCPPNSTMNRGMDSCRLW
The experiment in a line: sPHEX inhibitor IC50 determination using a fluorogenic substrate (Abz-GFSDYK-Dnp, S3). It is filed as biochemical. To be noted: fluorogenic substrate 20 μM, 100 ng sPHEX, pH 6.5. How it is done: The soluble form of the metallopeptidase PHEX (sPHEX) was purified to homogeneity according to the methods of Boileau and Crine (WO 00/50580). sPHEX quantity was measured with the Bradford assay (BioRad) using BSA as a standard.
sPHEX activity was determined using a fluorogenic substrate in which an increase of fluorescence was proportional to substrate conversion to products.
S3 was synthesized at Dr. Gilles Lajoie's laboratories (University of Western Ontario, Canada) by standard solid phase peptide synthesis. The fluorescent reaction product was excited at 320 nm to fluoresce at 420 nm. Fluorescence was recorded at 420 nm every five minutes over a one-hour period on a fluorescence plate reader (Perkin-Elmer, HTS-7000) to calculate the initial rate of the reaction. Typically, the reaction was carried out in 200 μl of buffer M (50 mM Mes(NaOH) pH 6.5, 150 mM NaCl) containing 100 ng of purified sPHEX and 20 μM of fluorigenic substrate to initiate the reaction. Enzymatic activity was determined by subtracting either the initial rate of substrate in buffer (solvolysis), or the typical reaction rate in which 5 mM EDTA was added prior to initiating the reaction.
sPHEX inhibitor IC50 determinations were done using the tested inhibitor at various concentrations coming from a serial dilution (usually ranging from 10^−3 M to 10^−12 M) in the reaction described above. IC50 values were calculated using the iterative four parameters non-linear regression formula from the GraphPad™ software (Prism).
Consider `O=C(O)C[C@H](NC(=O)CS)C(=O)N[C@@H](Cc1c[nH]c2ccccc12)C(=O)O` [Example 87, N-[1-Carboxy-2-(1H-indol-3-yl)-ethyl]-3-(2-mercapto-acetylamino)-succinamic acid], for which the IC50 – broadly, the concentration that gives 50% inhibition – came out at 0.6 µM.

As for `O=C(O)C[C@H](NC(=O)[C@@H](S)Cc1ccccc1)C(=O)N[C@@H](Cc1c[nH]c2ccccc12)C(=O)O` [Example 89, N-[1-Carboxy-2-(1H-indol-3-yl)-ethyl]-3-(2-mercapto-3-phenyl-propionylamino)-succinamic acid], the IC50 is 0.011 µM.

`C[C@H](S)C(=O)N[C@@H](CC(=O)O)C(=O)N[C@@H](Cc1c[nH]c2ccccc12)C(=O)O` [Example 90, N-[1-Carboxy-2-(1H-indol-3-yl)-ethyl]-3-(2-mercapto-propionylamino)-succinamic acid] gave an IC50 of 0.068 µM. This IC50 lies about 6.2-fold higher than the previous one.

`CC(C)C[C@H](S)C(=O)N[C@@H](CC(=O)O)C(=O)N[C@@H](Cc1c[nH]c2ccccc12)C(=O)O` [Example 91, N-[1-Carboxy-2-(1H-indol-3-yl)-ethyl]-3-(2-mercapto-4-methyl-pentanoylamino)-succinamic acid] registered an IC50 of 0.094 µM.

In turn, `CC(C)[C@H](S)C(=O)N[C@@H](CC(=O)O)C(=O)N[C@@H](Cc1c[nH]c2ccccc12)C(=O)O` [Example 92, N-[1-Carboxy-2-(1H-indol-3-yl)-ethyl]-3-(2-mercapto-3-methyl-butyrylamino)-succinamic acid] gave an IC50 of 0.005 µM.

In turn, `O=C(O)C[C@H](NC(=O)[C@@H](S)CO)C(=O)N[C@@H](Cc1c[nH]c2ccccc12)C(=O)O` [Example 93, N-[1-Carboxy-2-(1H-indol-3-yl)-ethyl]-3-(3-hydroxy-2-mercapto-propionylamino)-succinamic acid] had an IC50 of 0.048 µM.

In turn, `C[C@H](O)[C@H](S)C(=O)N[C@@H](CC(=O)O)C(=O)N[C@@H](Cc1c[nH]c2ccccc12)C(=O)O` [Example 94, N-[1-Carboxy-2-(1H-indol-3-yl)-ethyl]-3-(3-hydroxy-2-mercapto-butyrylamino)-succinamic acid] yielded an IC50 of 0.004 µM.

In turn, `CCCC[C@H](S)C(=O)N[C@@H](CC(=O)O)C(=O)N[C@@H](Cc1c[nH]c2ccccc12)C(=O)O` [Example 95, N-[1-Carboxy-2-(1H-indol-3-yl)-ethyl]-3-(2-mercapto-hexanoylamino)-succinamic acid] came in with an IC50 of 0.007 µM.

For `O=C(O)C[C@H](NC(=O)[C@@H](S)CCc1ccccc1)C(=O)N[C@@H](Cc1c[nH]c2ccccc12)C(=O)O` [Example 96, N-[1-Carboxy-2-(1H-indol-3-yl)-ethyl]-3-(2-mercapto-4-phenyl-butyrylamino)-succinamic acid], inhibition was half-maximal at 0.004 µM (IC50).

The molecule `O=C(O)C[C@H](NC(=O)[C@@H](S)c1ccccc1)C(=O)N[C@@H](Cc1c[nH]c2ccccc12)C(=O)O` [Example 97, N-[1-Carboxy-2-(1H-indol-3-yl)-ethyl]-3-(2-mercapto-2-phenyl-acetylamino)-succinamic acid] showed an IC50 of 0.003 µM.

In the case of `O=C(O)C[C@H](NC(=O)[C@@H](S)Cc1ccc(-c2ccccc2)cc1)C(=O)N[C@@H](Cc1c[nH]c2ccccc12)C(=O)O` [Example 98, 3-(3-Biphenyl-4-yl-2-mercapto-propionylamino)-N-[1-Carboxy-2-(1H-indol-3-yl)-ethyl]-succinamic acid], the IC50 was 0.008 µM.

Turning to `O=C(O)C[C@H](NC(=O)[C@@H](S)Cc1ccc(OCc2ccccc2)cc1)C(=O)N[C@@H](Cc1c[nH]c2ccccc12)C(=O)O` [Example 99, 3-(3-(4-Benzyloxy-phenyl)-2-mercapto-propionylamino)-N-[1-Carboxy-2-(1H-indol-3-yl)-ethyl]-succinamic acid], half-maximal inhibition (IC50) required 0.008 µM.

`O=C(O)C[C@H](NC(=O)[C@@H](S)Cc1ccc(F)cc1)C(=O)N[C@@H](Cc1c[nH]c2ccccc12)C(=O)O` [Example 100, N-[1-Carboxy-2-(1H-indol-3-yl)-ethyl]-3-[3-(4-fluoro-phenyl)-2-mercapto-propionylamino]-succinamic acid] gave an IC50 of 0.006 µM.

Turning to `COc1ccc(C[C@H](S)C(=O)N[C@@H](CC(=O)O)C(=O)N[C@@H](Cc2c[nH]c3ccccc23)C(=O)O)cc1` [Example 101, N-[1-Carboxy-2-(1H-indol-3-yl)ethyl]-3-[2-mercapto-3-(methoxy-phenyl)-propionylamino]-succinamic acid], half-maximal inhibition (IC50) was put at 0.018 µM. This IC50 lies about 3-fold higher than the previous one.

Turning to `O=C(O)C[C@H](NC(=O)[C@@H](S)CC1CCCCC1)C(=O)N[C@@H](Cc1c[nH]c2ccccc12)C(=O)O` [Example 102, N-[1-Carboxy-2-(1H-indol-3-yl)-ethyl]-3-(3-cyclohexyl-2-mercapto-propionylamino)-succinamic acid], the IC50 amounted to 0.02 µM. This IC50 and that of the molecule before are within 1.5-fold of each other.

For the molecule `O=C(O)C[C@H](NC(=O)[C@@H](S)Cc1c[nH]c2ccccc12)C(=O)N[C@@H](Cc1c[nH]c2ccccc12)C(=O)O` [Example 103, N-[1-Carboxy-2-(1H-indol-3-yl)-ethyl]-3-[3-(1H-indol-3-yl)-2-mercapto-propionylamino]-succinamic acid], the IC50 amounted to 0.022 µM. The IC50 values of the last two molecules are within 1.5-fold of each other.

Turning to `O=C(O)C[C@H](NC(=O)[C@@H](S)Cc1ccc2ccccc2c1)C(=O)N[C@@H](Cc1c[nH]c2ccccc12)C(=O)O` [Example 104, N-[1-Carboxy-2-(1H-indol-3-yl)-ethyl]-3-(2-mercapto-3-naphthalen-2-yl-propionylamino]-succinamic acid], the IC50 amounted to 0.015 µM.

Turning to `O=C(O)C[C@H](NC(=O)[C@@H](S)Cc1ccccc1)C(=O)N[C@@H](Cc1ccc2ccccc2c1)C(=O)O` [Example 106, N-(1-Carboxy-2-naphthalen-2-yl-ethyl)-3-(2-mercapto-3-phenylpropionylamino)-succinamic acid], the IC50 is 0.006 µM.

As to `O=C(O)C[C@H](NC(=O)[C@@H](S)Cc1ccccc1)C(=O)N[C@@H](CO)C(=O)O` [Example 107, N-(1-Carboxy-2-hydroxy-ethyl)-3-(2-mercapto-3-phenyl-propionylamino)-succinamic acid], half-maximal inhibition (IC50) required 0.17 µM.

`O=C(O)C[C@H](NC(=O)[C@@H](S)Cc1ccccc1)C(=O)N[C@@H](Cc1ccc(O)cc1)C(=O)O` [Example 108, N-[1-Carboxy-2-(4-hydroxy-phenyl)-ethyl]-3-(2-mercapto-3-phenyl-propionylamino)-succinamic acid] gave an IC50 of 0.007 µM.

With `O=C(O)C[C@H](NC(=O)[C@@H](S)Cc1ccccc1)C(=O)N[C@@H](Cc1ccccc1)C(=O)O` [Example 109, N-[1-Carboxy-2-phenyl-ethyl)-3-(2-mercapto-3-phenyl-propionylamino)-succinamic acid], the IC50 came out at 0.007 µM.

`O=C(O)C[C@H](NC(=O)[C@@H](S)Cc1ccccc1)C(=O)N[C@@H](Cc1ccc(-c2ccccc2)cc1)C(=O)O` [Example 110, N-(2-Biphenyl-4-yl-1-Carboxy-ethyl)-3-(2-mercapto-3-phenyl-propionylamino)-succinamic acid] yielded an IC50 of 0.038 µM.

For `O=C(O)C[C@H](NC(=O)[C@@H](S)Cc1ccccc1)C(=O)N[C@H](CO)Cc1ccccc1` [Example 111, N-(1-Benzyl-2-hydroxy-ethyl)-3-(2-mercapto-3-phenyl-propionylamino)-succinamic acid], the IC50 was found to be 0.09 µM. This IC50 is about 2.4-fold higher than that of the molecule before.

`O=C(O)C[C@@H](NC(=O)[C@@H](S)Cc1ccccc1)C(=O)N[C@@H](Cc1c[nH]c2ccccc12)C(=O)O` [Example 112, N-[1-Carboxy-2-(1H-indol-3-yl)-ethyl]-3-(2-mercapto-3-phenyl-propionylamino)-succinamic acid] had an IC50 of 0.015 µM. Against the preceding molecule, the IC50 is about 6-fold lower.

As to `O=C(O)CC[C@H](NC(=O)[C@@H](S)Cc1ccccc1)C(=O)N[C@@H](Cc1c[nH]c2ccccc12)C(=O)O` [Example 114], inhibition was half-maximal at 0.32 µM (IC50). Compared with the last molecule, the IC50 is about 21-fold higher.

Molecule `CNC(=O)[C@H](Cc1c[nH]c2ccccc12)NC(=O)[C@H](CC(=O)O)NC(=O)CS` [Example 115, N-[2-(1H-indol-3-yl)-methylcarbamoyl-ethyl]-3-(2-mercapto-acetylamino)-succinamic acid] gave an IC50 of 1.3 µM.
